In general, EC50 refers to the concentration giving half of the maximal effect. Low readings indicate greater potency, high ones weaker potency.

The test addresses T1, human LXRβ (Homo sapiens, UniProt P55055).
T1 construct: expressed in transfected cells; host or cells: HEK293 cells (ATCC CRL-1573), transient transfection with pFA-hLXRβ/GAL4 and pUAS
T1 sequence (P55055 222-460 limits assumed): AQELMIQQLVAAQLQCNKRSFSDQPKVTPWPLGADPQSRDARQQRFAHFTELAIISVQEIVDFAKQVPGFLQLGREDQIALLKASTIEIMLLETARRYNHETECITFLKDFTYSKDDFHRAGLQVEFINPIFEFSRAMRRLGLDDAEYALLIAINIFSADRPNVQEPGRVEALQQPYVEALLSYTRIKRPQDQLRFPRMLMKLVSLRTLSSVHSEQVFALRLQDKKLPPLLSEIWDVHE
The test is described as follows: Assay for Transcriptional Activity of LXRβ (GAL4-hLXRβ LBD luciferase reporter, transient transfection). The format is cell-based. As to conditions: HEK293 cells transfected with pFA-hLXRβ/GAL4 and pUAS, 24 hours; for Emax: fold value in comparison with the control (DMSO-treated group); for EC50: increase of transcriptional activity of LXRβ, average of three independent tests. In short, it runs like this:
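EC50 values, averaged over three independent runs, come from a four-parameter fit of 9-point half-log curves spanning 0.01–50 μM. Luciferase output was read in lysed HEK293 cells 24 h after dosing at 37 °C, following transient transfection with a GAL4-human LXRβ LBD fusion plus GAL4-responsive reporter.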
On the technique in general: In a reporter assay the amount or activity of a reporter protein is the signal.

In the case of `CN(CCCS(=O)(=O)c1cccc(-c2ccc(C3CC(C(O)(C(F)(F)F)C(F)(F)F)=NN3c3ccccc3Cl)cc2)c1)C(=O)OC(C)(C)C` (stereo not drawn) [Example 285, 5-{3′-[3-(N-BOC-N-methyl-amino)-propane-1-sulfonyl]-biphenyl-4-yl}-1-(2-chloro-phenyl)-3-[di-(trifluoromethyl)-hydroxy-methyl]-4,5-dihydro-1H-pyrazole], the Emax worked out at 73 fold and the EC50 was 62 nM.

On to `CS(=O)(=O)c1cccc(-c2ccc(C3CC(C(O)(C(F)(F)F)C(F)(F)F)=NN3c3ccccc3Cl)cc2)n1` (stereo not drawn) [Example 286, 1-(2-chloro-phenyl)-5-{4-[6-(methylsulfonyl)-pyridin-2-yl]-phenyl}-3-[di-(trifluoromethyl)-hydroxy-methyl]-4,5-dihydro-1H-pyrazole], for which the Emax stood at 36 fold and the EC50 turned out to be 632 nM.

With `OC(C1=NN(c2ccccc2Cl)C(c2ccc(-c3cc(F)c(-n4cncn4)cc3F)cc2)C1)(C(F)(F)F)C(F)(F)F` (stereo not drawn) [Example 287, 1-(2-chloro-phenyl)-5-[2′,5′-difluoro-4′-(1H-1,2,4-triazol-1-yl)-biphenyl-4-yl]-3-[di-(trifluoromethyl)-hydroxy-methyl]-4,5-dihydro-1H-pyrazole], the Emax was found to be 47 fold and the concentration for a half-maximal effect (EC50) was 519 nM.

Compound `CS(=O)(=O)c1cc(F)c(-c2ccc(C3CC(C(O)(C(F)(F)F)C(F)(F)F)=NN3c3ccccc3Cl)cc2)c(F)c1` (stereo not drawn) [Example 288, 1-(2-chloro-phenyl)-5-[2′,6′-difluoro-4′-(methylsulfonyl)-biphenyl-4-yl]-3-[di-(trifluoromethyl)-hydroxy-methyl]-4,5-dihydro-1H-pyrazole] yielded an Emax of 40 fold and a 50% effective concentration (EC50) of 727 nM.

Consider `CS(=O)(=O)c1ccc(-c2ccc(C3CC(C(O)(C(F)(F)F)C(F)(F)F)=NN3c3ccccc3Cl)cc2)c(C(F)(F)F)c1` (stereo not drawn) [Example 289, 1-(2-chloro-phenyl)-5-[4′-(methylsulfonyl)-2′-(trifluoromethyl)-biphenyl-4-yl]-3-[di-(trifluoromethyl)-hydroxy-methyl]-4,5-dihydro-1H-pyrazole], for which the Emax turned out to be 32 fold and a half-maximal response (EC50) required 320 nM.

`CS(=O)(=O)c1ccc(-c2ccc(C3CC(C(O)(C(F)(F)F)C(F)(F)F)=NN3c3ccccc3Cl)cc2)cc1C#N` (stereo not drawn) [Example 290, 1-(2-chloro-phenyl)-5-[3′-cyano-4′-(methylsulfonyl)-biphenyl-4-yl]-3-[di-(trifluoromethyl)-hydroxy-methyl]-4,5-dihydro-1H-pyrazole] gave an Emax of 29 fold and a 50% effective concentration (EC50) of 161 nM.

Consider `CS(=O)(=O)N1CC=C(c2ccc(C3CC(C(O)(C(F)(F)F)C(F)(F)F)=NN3c3ccccc3Cl)cc2)CC1` (stereo not drawn) [Example 298, 1-(2-chloro-phenyl)-5-[4-(1-methanesulfonyl-1,2,3,6-tetrahydropyridin-4-yl)-phenyl]-3-[di-(trifluoromethyl)-hydroxy-methyl]-4,5-dihydro-1H-pyrazole], for which the Emax came to 88 fold and the EC50 is 304 nM.

`CCS(=O)(=O)N1CC=C(c2ccc(C3CC(C(O)(C(F)(F)F)C(F)(F)F)=NN3c3ccccc3Cl)cc2)CC1` (stereo not drawn) [Example 299, 1-(2-chloro-phenyl)-5-[4-(1-ethanesulfonyl-1,2,3,6-tetrahydropyridin-4-yl)-phenyl]-3-[di-(trifluoromethyl)-hydroxy-methyl]-4,5-dihydro-1H-pyrazole] registered an Emax of 83 fold and an EC50 of 316 nM.

Regarding `CCCS(=O)(=O)N1CC=C(c2ccc(C3CC(C(O)(C(F)(F)F)C(F)(F)F)=NN3c3ccccc3Cl)cc2)CC1` (stereo not drawn) [Example 300, 1-(2-chloro-phenyl)-5-{4-[1-(propane-1-sulfonyl)-1,2,3,6-tetrahydropyridin-4-yl]-phenyl}-3-[di-(trifluoromethyl)-hydroxy-methyl]-4,5-dihydro-1H-pyrazole], the Emax is listed as 53 fold and a half-maximal response (EC50) required 635 nM.

`CC(C)S(=O)(=O)N1CC=C(c2ccc(C3CC(C(O)(C(F)(F)F)C(F)(F)F)=NN3c3ccccc3Cl)cc2)CC1` (stereo not drawn) [Example 301, 1-(2-chloro-phenyl)-5-{4-[1-(propane-2-sulfonyl)-1,2,3,6-tetrahydropyridin-4-yl]-phenyl}-3-[di-(trifluoromethyl)-hydroxy-methyl]-4,5-dihydro-1H-pyrazole] returned an Emax of 73 fold and an EC50 of 479 nM.

Consider `CC(C)CS(=O)(=O)N1CC=C(c2ccc(C3CC(C(O)(C(F)(F)F)C(F)(F)F)=NN3c3ccccc3Cl)cc2)CC1` (stereo not drawn) [Example 302, 1-(2-chloro-phenyl)-5-{4-[1-(2-methyl-propane-1-sulfonyl)-1,2,3,6-tetrahydropyridin-4-yl]-phenyl}-3-[di-(trifluoromethyl)-hydroxy-methyl]-4,5-dihydro-1H-pyrazole], for which the Emax came to 45 fold and a half-maximal response (EC50) required 849 nM.

For `O=S(=O)(C1CC1)N1CC=C(c2ccc(C3CC(C(O)(C(F)(F)F)C(F)(F)F)=NN3c3ccccc3Cl)cc2)CC1` (stereo not drawn) [Example 304, 1-(2-chloro-phenyl)-5-[4-(1-cyclopropanesulfonyl-1,2,3,6-tetrahydropyridin-4-yl)-phenyl]-3-[di-(trifluoromethyl)-hydroxy-methyl]-4,5-dihydro-1H-pyrazole], the Emax was 104 fold and the EC50 was found to be 521 nM.

Compound `CN(C)S(=O)(=O)N1CC=C(c2ccc(C3CC(C(O)(C(F)(F)F)C(F)(F)F)=NN3c3ccccc3Cl)cc2)CC1` (stereo not drawn) [Example 305, 1-(2-chloro-phenyl)-5-{4-[1-dimethylsulfamoyl-1,2,3,6-tetrahydropyridin-4-yl]-phenyl}-3-[di-(trifluoromethyl)-hydroxy-methyl]-4,5-dihydro-1H-pyrazole] displayed an Emax of 66 fold and an EC50 of 304 nM.

For the compound `O=S(=O)(C1CCCC1)N1CC=C(c2ccc(C3CC(C(O)(C(F)(F)F)C(F)(F)F)=NN3c3ccccc3Cl)cc2)CC1` (stereo not drawn) [Example 306, 1-(2-chloro-phenyl)-5-[4-(1-cyclopentanesulfonyl-1,2,3,6-tetrahydropyridin-4-yl)-phenyl]-3-[di-(trifluoromethyl)-hydroxy-methyl]-4,5-dihydro-1H-pyrazole], the Emax is reported as 59 fold and the response was half-maximal at 1250 nM (EC50).

As for `O=S(=O)(C1CCCCC1)N1CC=C(c2ccc(C3CC(C(O)(C(F)(F)F)C(F)(F)F)=NN3c3ccccc3Cl)cc2)CC1` (stereo not drawn) [Example 307, 1-(2-chloro-phenyl)-5-[4-(1-cyclohexanesulfonyl-1,2,3,6-tetrahydropyridin-4-yl)-phenyl]-3-[di-(trifluoromethyl)-hydroxy-methyl]-4,5-dihydro-1H-pyrazole], the Emax was determined as 52 fold and the EC50 came to 5470 nM.

`O=S(=O)(N1CC=C(c2ccc(C3CC(C(O)(C(F)(F)F)C(F)(F)F)=NN3c3ccccc3Cl)cc2)CC1)N1CCCC1` (stereo not drawn) [Example 308, 1-(2-chloro-phenyl)-5-{4-[1-(pyrrolidine-1-sulfonyl)-1,2,3,6-tetrahydropyridin-4-yl]-phenyl}-3-[di-(trifluoromethyl)-hydroxy-methyl]-4,5-dihydro-1H-pyrazole] gave an Emax of 36 fold and an EC50 of 495 nM.

For `CC(=O)Nc1cccc(-c2ccc(C3CC(C(O)(C(F)(F)F)C(F)(F)F)=NN3c3ccccc3Cl)cc2)c1` (stereo not drawn) [Example 309, 5-(3′-acetaminobiphenyl-4-yl)-1-(2-chloro-phenyl)-3-[di-(trifluoromethyl)-hydroxy-methyl]-4,5-dihydro-1H-pyrazole], the Emax is on record as 84 fold and the EC50 came out at 1940 nM.

`CS(=O)(=O)Nc1cccc(-c2ccc(C3CC(C(O)(C(F)(F)F)C(F)(F)F)=NN3c3ccccc3Cl)cc2)c1` (stereo not drawn) [Example 310, 5-(3′-methanesulfonyl-aminobiphenyl-4-yl)-1-(2-chloro-phenyl)-3-[di-(trifluoromethyl)-hydroxy-methyl]-4,5-dihydro-1H-pyrazole] displayed an Emax of 78 fold and an EC50 of 1150 nM.

Regarding `CS(=O)(=O)N1CCN(c2ccc(C3CC(C(O)(C(F)(F)F)C(F)(F)F)=NN3c3ccccc3Cl)cc2)CC1` (stereo not drawn) [Example 312, 1-(2-chloro-phenyl)-5-[4-(4-methanesulfonyl-piperazin-1-yl)-phenyl]-3-[di-(trifluoromethyl)-hydroxy-methyl]-4,5-dihydro-1H-pyrazole], the Emax was 46 fold and it took 2540 nM to reach a half-maximal effect (EC50).

`CCS(=O)(=O)N1CCN(c2ccc(C3CC(C(O)(C(F)(F)F)C(F)(F)F)=NN3c3ccccc3Cl)cc2)CC1` (stereo not drawn) [Example 313, 1-(2-chloro-phenyl)-5-[4-(4-ethanesulfonyl-piperazin-1-yl)-phenyl]-3-[di-(trifluoromethyl)-hydroxy-methyl]-4,5-dihydro-1H-pyrazole]: the Emax was found to be 56 fold and a half-maximal response (EC50) required 1120 nM.

`CC(C)S(=O)(=O)N1CCN(c2ccc(C3CC(C(O)(C(F)(F)F)C(F)(F)F)=NN3c3ccccc3Cl)cc2)CC1` (stereo not drawn) [Example 314, 1-(2-chloro-phenyl)-5-[4-(4-isopropylsulfonyl-piperazin-1-yl)-phenyl]-3-[di-(trifluoromethyl)-hydroxy-methyl]-4,5-dihydro-1H-pyrazole] came in with an Emax of 59 fold and a concentration giving a half-maximal response (EC50) of 883 nM.

The values are drawn from US9376420B2 (YUHAN CORPORATION, priority 2012, dated 2016).
